Data set [1] relates to Mycobacterium leprae. In words: Anti-leprotic activity against Mycobacterium leprae infected in CBA mouse assessed as number of Mycobacterium leprae in paw pads at 30 mg/kg administrated 5 times a week and measured 7.5 months post infection (reference value: 3.91 +/- 0.33 10^5). It is filed as functional.
Data set [2] concerns Mycobacterium leprae. In words: Anti-leprotic activity against Mycobacterium leprae infected in CBA mouse assessed as number of Mycobacterium leprae in paw pads at 10 mg/kg administrated 5 times a week and measured 7.5 months post infection (reference value: 3.91 +/- 0.33 10^5). It counts as functional.
The subject of data set [3] is Mycobacterium leprae. In words: Inhibition of PGL1 synthesis in Mycobacterium leprae infected Swiss Webster mouse macrophages assessed as decrease in [U-14C]PA incorporation at 0.2 uM preincubated for 4 days post infection followed by [U-14C]PA addition and measured after 7 days by liquid scintillation counter analysis relative to control. It counts as functional.
In data set [4] the test system is Mycobacterium leprae. In words: Inhibition of PGL1 synthesis in Mycobacterium leprae infected Swiss Webster mouse macrophages assessed as decrease in [U-14C]PA incorporation at 2 uM preincubated for 4 days post infection followed by [U-14C]PA addition and measured after 7 days by liquid scintillation counter analysis relative to control. It is filed as functional.

Data set [5] concerns Mycobacterium leprae. Kind of data set: Anti-leprotic activity against Mycobacterium leprae infected in BALB/c mouse assessed as time delay in bacterial multiplication in footpad at 0.01 g/100g of diet administered via feed starting 60 or 75 day post infection up to 90 days by Shepard's kinetic method. It counts as functional.
The test system of data set [6] is Mycolicibacterium smegmatis. In words: Antimycobacterial activity against DDS resistant Mycobacterium smegmatis ATCC 607 […]. It counts as functional.
The subject of data set [7] is Mycolicibacterium smegmatis. Kind of data set: Antimycobacterial activity against DDS sensitive Mycobacterium smegmatis ATCC 607 […]. It counts as functional.
A further data set has as its system Escherichia coli. In words: Antimicrobial activity against Escherichia coli assessed as zone of inhibition incubated for 20 hrs by agar well diffusion assay. It is filed as functional.
For another data set, the system named is Staphylococcus aureus. Kind of data set: Antimicrobial activity against Staphylococcus aureus assessed as zone of inhibition incubated for 20 hrs by agar well diffusion assay. It counts as functional. A general note: A growth-free zone around the sample is the usual read-out of agar diffusion tests.
The test system of data set [8] is Mycolicibacterium smegmatis. In words: Antimicrobial activity against Mycobacterium smegmatis incubated for 30 to 32 hrs under shaking condition relative to control. It is filed as functional.
Data set [9] concerns Mycolicibacterium smegmatis. In words: Antimicrobial activity against Mycobacterium smegmatis incubated for 30 to 32 hrs under shaking condition. It is filed as functional.
The test system of data set [10] is Monocyte. In words: Antiinflammatory activity in human monocytes assessed as inhibition of LPS-induced TNFaplha production at 50 uM preincubated for 15 mins followed by LPS addition and measured after 4 hrs by ELISA relative to control. It counts as functional. (An ELISA detects its analyte on a solid surface through an enzyme-linked reagent.)
The test system of data set [11] is Monocyte. Kind of data set: Antiinflammatory activity in human monocytes assessed as inhibition of LPS-induced TNFaplha production at 25 uM preincubated for 15 mins followed by LPS addition and measured after 4 hrs by ELISA relative to control. It counts as functional.
Data set [12] in a line: Cytotoxicity against LPS-induced human monocytes assessed as cell viability at 50 uM by tryphan blue staining based assay relative to control. Details: species or system Monocyte. Particulars: read-out: Activity.
For data set [13], the system named is Mycobacterium tuberculosis. In words: Antitubercular activity against Mycobacterium tuberculosis H37Rv ATCC 27294 assessed as growth inhibition at 6.25 ug/ml by microplate alamar blue assay relative to control. It is filed as functional. For orientation: Alamar Blue is a resazurin reagent that responds to reducing activity.
Data set [14] can be described thus: Selectivity index, ratio of IC50 for African green monkey Vero cells to MIC for antitubercular activity against Mycobacterium tuberculosis H37Rv. It is filed as toxicity. Particulars: Vero cells, read-out: Selectivity Index.
Data set [15] concerns Mycobacterium tuberculosis. In words: Antitubercular activity against Mycobacterium tuberculosis H37Rv ATCC 27294 assessed as inhibition of [3H]-thymidine incorporation relative to control. It is filed as functional.

SMILES strings stand for the structures. In brackets after ≈: the same amount, converted by molar mass.

For the compound `CN(C)C(=S)Sc1c([N+](=O)[O-])cc([N+](=O)[O-])nc1C#N`, the Activity worked out at 1.83 ×10⁵ No_unit with Mycobacterium leprae [1] and 2.13 ×10⁵ No_unit in the data set on Mycobacterium leprae [2].

Take `CCN(CC)CCC/N=c1/cc2n(-c3ccc(Cl)cc3)c3ccccc3nc-2cc1Nc1ccc(Cl)cc1`: in the data set with Mycobacterium leprae [3], the inhibition (commonly the drop in the measured response relative to a control, in per cent) at 0.2 µM was 22%. Also, the inhibition at 2 µM in the data set with Mycobacterium leprae [4] is 90%.

As to `COc1ccc(S(=O)(=O)c2ccc(N)cc2)cc1`, in the data set with Mycobacterium leprae [5], the Time is below 10 days. Also, the figures for the MIC in data set [6] and in data set [7] were above 500 µg/mL and 256 µg/mL (≈ 972 µM), respectively.

For `C[C@@H](O)[C@H]1C(=O)N2C(C(=O)O)=C(SCCNC=N)O[C@H]12`, the “diameter of the inhibition zone (DIZ)” value in the data set on Escherichia coli is on record as 31 mm; with Staphylococcus aureus, 28 mm.

Turning to `Clc1ccc(Nc2cc3nc4ccccc4n(-c4ccc(Cl)cc4)c-3c/c2=N/CCCN2CCCC2)cc1`, the inhibition at 0.2 µM in the data set on Mycobacterium leprae [3] came out at 26%. In the data set with Mycobacterium leprae [4], the inhibition at 2 µM is 98%.

For the compound `CCn1cc(C(=O)N/N=C\c2c(Cl)cccc2Cl)c(=O)c2cc(F)c(N3CCN(C)CC3)cc21`, the Activity in data set [8] is given as above 30%. Moreover, the MIC (usually the lowest concentration found to suppress growth) in data set [9] amounted to 27 µM (≈ 13.6 µg/mL).

Turning to `CCn1cc(C(=O)N/N=C\c2cc(OC)c(OC)c(OC)c2)c(=O)c2cc(F)c(N3CCN(C)CC3)cc21`, in data set [8], the Activity is above 30%. Also, in data set [9], the lowest concentration to inhibit growth (MIC) was 81.2 µM (≈ 42.7 µg/mL).

For `C[C@@H](O)[C@H]1C(=N)N2C(C(=O)O)=C(SCCNC=N)C[C@H]12`, the “diameter of the inhibition zone (DIZ)” value in the data set with Escherichia coli is on record as 27 mm; in the data set on Staphylococcus aureus, 25 mm.

As for `CCn1cc(C(=O)N/N=C\c2ccc(C)cc2)c(=O)c2cc(F)c(N3CCN(C)CC3)cc21`, the Activity in [8] is listed as above 30%. In addition, the MIC in [9] was 42.5 µM (≈ 19.1 µg/mL).

Turning to `O=C1c2cccc([N+](=O)[O-])c2C(=O)N1c1cn(-c2ccccc2)c(=O)[nH]c1=O`, the inhibition at 50 µM in the data set on Monocyte [10] was below 10%. Also, the inhibition at 25 µM in the data set with Monocyte [11] is below 10%. The viability at 50 µM in [12] was 90%.

For `Clc1nc(-c2cccs2)c2ncn(Cc3ccccc3)c2n1`, the inhibition at 6.25 µg/mL in data set [13] is above 90%. In data set [14], the selectivity ratio is above 6.4.

As to `CC(C)/N=c1\cc2n(-c3ccc(Cl)cc3)c3ccccc3nc-2cc1Nc1ccc(Cl)cc1` [CLOFAZIMINE], in the data set with Mycobacterium leprae [3], the inhibition at 0.2 µM was determined as 70%. Besides, the inhibition at 2 µM in the data set on Mycobacterium leprae [4] is 94%.

For the compound `Nc1ccc(S(=O)(=O)c2ccc(O)cc2)cc1`, in the data set on Mycobacterium leprae [5], the Time was below 10 days. Further, the MIC in [6] was determined as 2010 µg/mL (≈ 8050 µM); in data set [7], 12 µg/mL (≈ 48.1 µM).

Turning to `C[C@@H](O)[C@H]1C(=O)N2C(C(=O)O)=C(SCCNC=N)C[C@H]12` [IMIPENEM ANHYDROUS], the “diameter of the inhibition zone (DIZ)” value in the data set on Escherichia coli turned out to be 35 mm; in the data set on Staphylococcus aureus it was 31 mm.

In data set [8], `CCn1cc(C(=O)N/N=C\c2cccc(O)c2)c(=O)c2cc(F)c(N3CCN(C)CC3)cc21` returned an Activity above 30%. The same compound gave an MIC in data set [9] of 27.2 µM (≈ 12.3 µg/mL).

As for `c1ccc(Cn2cnc3c(-c4ccco4)ncnc32)cc1` [9-BENZYL-6-(FURAN-2-YL)-9H-PURINE], in data set [15], the “inhibition (INH)” value amounted to 59%. Further, the inhibition at 6.25 µg/mL in data set [13] is above 90%. Moreover, in [14], the selectivity ratio turned out to be 2.7.

Turning to `C[C@@H](O)[C@H]1C(=O)N2C(C(=O)O)=C(SCCNC=O)C[C@H]12`, the “diameter of the inhibition zone (DIZ)” value with Escherichia coli was 30 mm; with Staphylococcus aureus, 29 mm.

Consider `CN(C)C(=S)Sc1c(C#N)cc([N+](=O)[O-])cc1[N+](=O)[O-]`, for which the Activity with Mycobacterium leprae [1] was 0.77 ×10⁵ No_unit; with Mycobacterium leprae [2], 0.83 ×10⁵ No_unit.

The values are drawn from ChEMBL document CHEMBL4613212, “Insights of synthetic analogues of anti-leprosy agents” (Bioorg Med Chem, 2019).
